Assay results taken from paper PMC3598914, “In Vivo Detection of Human TRPV6-Rich Tumors with Anti-Cancer Peptides Derived from Soricidin” (PLoS ONE, 2013).
“Also recorded” adds a separate entry of the source. Residues, ends and D or L forms follow the SMILES beside them.

How the values were obtained:
[1] = Table 1; no reference given; cited from earlier work
Excerpt: Table 1 Amino acid sequences of parent soricidin (accession number P0C2P6), SOR-C27 and SOR-C13. | column: Activity

TRPV6 channels = settings: cited from earlier work
Excerpt: Herein, we described the TRPV6 binding properties of SOR-C13 and SOR-C27 and the ability of these peptides to target human ovarian tumors in ...

TRPV6 = settings: breast cancer cells; cited from earlier work
Excerpt: (§1) The link between tumor growth and over-expression of TRPV6 may involve the potentiation of calcium-dependent cell proliferation and inhibition of apoptosis. […] In the LNCaP prostate cancer cell line, up-regulation of TRPV6 augments proliferation and cell survival while retarding apoptosis through a mechanism that appears to involve activation of the nuclear factor of activated T-cell (NFAT) transcription ...

[2] = tested on: HEK-293 cells transfected with TRPV6; settings: low doses; cited from earlier work
Excerpt: as §1

human TRPV6 channels = target: T1, human TRPV6 channels (Homo sapiens, UniProt Q9H1D0); assay: whole-cell patch clamp of TRPV6/EGFP transfected HEK-293 cells; format: cell-based; settings: for Kd: washout not possible under voltage ramp stimulation, Kd estimated, read-out: K1 (Kd estimated to be equal to K1); for reduction of TRPV6 current amplitude / reduction of maximum TRPV6 current amplitude: p<0.05; for reduction of maximum TRPV6 current amplitude: n = 5, successive exposures
T1 construct: containing cDNA for the protein-coding region of TRPV6; expressed in transfected cells; host or cells: HEK-293 cells transiently transfected with pdi-CaT-L (pCAGGS backbone, gift of V. Flockerzi)
T1 sequence (Q9H1D0 41-765 limits assumed): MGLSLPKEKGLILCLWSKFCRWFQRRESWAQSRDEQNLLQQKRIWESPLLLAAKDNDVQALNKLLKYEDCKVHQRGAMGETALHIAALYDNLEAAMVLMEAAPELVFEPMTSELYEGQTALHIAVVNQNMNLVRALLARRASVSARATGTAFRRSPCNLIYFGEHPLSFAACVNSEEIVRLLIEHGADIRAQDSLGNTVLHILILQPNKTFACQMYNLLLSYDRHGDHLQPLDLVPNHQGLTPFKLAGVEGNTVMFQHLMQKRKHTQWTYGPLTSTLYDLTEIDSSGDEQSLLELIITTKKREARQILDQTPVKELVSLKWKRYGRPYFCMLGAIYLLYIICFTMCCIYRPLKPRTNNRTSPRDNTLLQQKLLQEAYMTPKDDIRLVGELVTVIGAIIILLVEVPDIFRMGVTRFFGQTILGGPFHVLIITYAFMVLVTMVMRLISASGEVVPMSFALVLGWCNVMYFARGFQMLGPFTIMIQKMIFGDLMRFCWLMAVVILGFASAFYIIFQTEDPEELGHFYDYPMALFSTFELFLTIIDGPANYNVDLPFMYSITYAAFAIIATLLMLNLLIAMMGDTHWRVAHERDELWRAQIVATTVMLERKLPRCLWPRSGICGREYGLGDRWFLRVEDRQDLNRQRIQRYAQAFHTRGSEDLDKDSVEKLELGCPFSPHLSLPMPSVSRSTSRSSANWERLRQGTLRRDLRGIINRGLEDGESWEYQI
Experimental: Human HEK-293 cells (6–9 passages) were plated in a 24-well plate at a density of 5×10^5 cells per well, 24 hours before transfection. Each well was diluted in serum-free medium and incubated for 5 minutes at room temperature then combined slowly and incubated at room temperature. After a 20 minute incubation, cells were exposed to the transfection complex consisting of 0.5 µg of pdi-CaT-L plasmid DNA (a gift from Dr. V. Flockerzi, Experimentelle und Klinische Pharmakologie und Toxikologie der Universität des Saarlandes) and 1.5 µl lipofectamine 2000 reagent. pdi-CaT-L is a bicistronic expression vector containing cDNA for the protein-coding region of TRPV6 and the mutated Green Fluorescent Protein (S65T; EGPF) separated by an […] (β-actin promoter /KOZAK/TRPV6/IRES/EGFP in pCAGGS). The IRES was derived from encephalomyocarditis virus. Transfection of HEK-293 cells with the bicistronic vector allows for simultaneous production of TRPV6 and EGFP and selection of fluorescent cells producing TRPV6 for the electrophysiology measurements. From previous investigations using this plasmid and other similar plasmids, it was determined that the TRPV6 channel is highly expressed, localized at the membrane surface, glycosylated and constitutively active giving rise to a Ca^2+-invoked inward current [33]–[35].
Whole-cell patch clamp recordings were performed on HEK-293 cells expressing TRPV6 and EGFP. Transfected cells were readily identified from non-transfected cells using a fluorescent Axiovert 135 microscope […]. The recordings were performed using an Axopatch 1D amplifier controlled and monitored using pClamp 9 software (MDS Analytical Technologies, Sunnyvale, CA, USA). Data sets were digitized at 20 kHz and filtered at 2 kHz. […] The extracellular solution contained: 145 mM NaCl, 10 mM CsCl, 10 mM CaCl2, 2 mM MgCl2, 2.8 mM KCl, 10 mM HEPES and 10 mM glucose with pH adjusted to 7.2 using NaOH.
To isolate TRPV6 currents, HEK-293 and transfected HEK-293 cells were voltage-clamped at +50 mV with a 50 ms linear voltage ramp (−110 mV to +90 mV) protocol applied in the presence or absence of a TRPV6 inhibitor, La^3+ ions (10 µM), SOR-C27, SOR-C13 or SOR-C27-Cy5.5. Although the La^3+ ion is a non-specific inhibitor there is currently no known selective inhibitor of the TRPV6 channel. The ramp was averaged over 10 times at 2 s intervals between ramps.
Analysis was performed off-line using IGOR (WaveMetrics Inc., Lake Oswego, OR, USA) software. The statistical significance was determined with paired Students' t-test (two-tailed). All values are expressed as mean ± SEM with a p-value of <0.05 considered significant.

[3] = solubility in NMR samples; format: physicochemical; settings: 10 mM in 90/10 H2O/D2O, 50 mM potassium phosphate pH 6.6; with 200 mM NaCl; with 100 mM DPC; 2 mM with 100 mM SDS; visual statement, 274 to 308 K
Experimental: Nuclear magnetic resonance (NMR) spectroscopic data was acquired to determine the conformational structural features of the SOR-C27 peptide under various conditions. A stock solution (sample #1) of 10 mM SOR-C27 was prepared in 90/10 H2O/D2O with 50 mM potassium phosphate buffer at pH 6.6. From sample #1, three additional samples were prepared: #2) stock solution with 200 mM NaCl, #3) stock solution with 100 mM dodecylphosphocholine (DPC) and #4) stock solution diluted to 2 mM with 100 mM sodium dodecylsulfate (SDS).

[4] = target: T2, SOR-C27 (soricidin C-terminal peptide) (Blarina brevicauda); assay: whole-cell patch clamp
T2 chain: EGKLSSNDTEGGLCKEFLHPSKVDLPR

[5] = target: T3, SOR-C13 (soricidin C-terminal peptide) (Blarina brevicauda); assay: whole-cell patch clamp
T3 chain: KEFLHPSKVDLPR

## DCSQDCAACSILARPAELNTETCILECEGKLSSNDTEGGLCKEFLHPSKVDLPR [Soricidin]
[1]
  Activity: Pain/ Cancer
TRPV6 channels
  inhibition of TRPV6 calcium channels / calcium uptake: found to inhibit the transient receptor potential of vallinoid type 6 (TRPV6) calcium channels; also recorded: inhibit calcium uptake via TRPV6 channels

## CC/C(=C(\c1ccccc1)c1ccc(OCCN(C)C)cc1)c1ccccc1 [tamoxifen]
TRPV6
  effect on TRPV6 expression and calcium signaling: reduces expression of TRPV6 and calcium signaling

## Clc1ccc(COC(Cn2ccnc2)c2ccc(Cl)cc2Cl)cc1 (stereo not drawn) [econazole]
[2]
  effect on calcium inflow signals and cell proliferation: reduced both calcium inflow signals and cell proliferation

## CC(C)C[C@H](NC(=O)[C@H](Cc1ccccc1)NC(=O)[C@H](CCC(=O)O)NC(=O)[C@@H](N)CCCCN)C(=O)N[C@@H](Cc1cnc[nH]1)C(=O)N1CCC[C@H]1C(=O)N[C@@H](CO)C(=O)N[C@@H](CCCCN)C(=O)N[C@H](C(=O)N[C@@H](CC(=O)O)C(=O)N[C@@H](CC(C)C)C(=O)N1CCC[C@H]1C(=O)N[C@@H](CCCNC(=N)N)C(=O)O)C(C)C [SOR-C13] (H-KEFLHPSKVDLPR-OH)
Human TRPV6 channels
  Kd: 0.014 ± 0.0013 µM

## CC(C)C[C@H](NC(=O)[C@H](Cc1ccccc1)NC(=O)[C@H](CCC(=O)O)NC(=O)[C@@H](N)CCCCN)C(=O)N[C@@H](Cc1c[nH]cn1)C(=O)N1CCC[C@H]1C(=O)N[C@@H](CO)C(=O)N[C@@H](CCCCN)C(=O)N[C@H](C(=O)N[C@@H](CC(=O)O)C(=O)N[C@@H](CC(C)C)C(=O)N1CCC[C@H]1C(=O)N[C@@H](CCCNC(=N)N)C(=O)O)C(C)C [SOR-C13] (H-KEFLHPSKVDLPR-OH)
Human TRPV6 channels; 83.5 nM, n = 9, mean ± SEM
  reduction of TRPV6 current amplitude: 18±4.0%
Human TRPV6 channels; 417.5 nM, n = 9, mean ± SEM
  reduction of TRPV6 current amplitude: 22±4%
Human TRPV6 channels; 835 nM, n = 7, mean ± SEM
  reduction of TRPV6 current amplitude: 24±4%
Human TRPV6 channels; 25 µM, n = 7, mean ± SEM
  reduction of TRPV6 current amplitude: 25±5%

## CC(C)C[C@H](NC(=O)CNC(=O)CNC(=O)[C@H](CCC(=O)O)NC(=O)[C@@H](NC(=O)[C@H](CC(=O)O)NC(=O)[C@H](CC(N)=O)NC(=O)[C@H](CO)NC(=O)[C@H](CO)NC(=O)[C@H](CC(C)C)NC(=O)[C@H](CCCCN)NC(=O)CNC(=O)[C@@H](N)CCC(=O)O)[C@@H](C)O)C(=O)N[C@@H](CS)C(=O)N[C@@H](CCCCN)C(=O)N[C@@H](CCC(=O)O)C(=O)N[C@@H](Cc1ccccc1)C(=O)N[C@@H](CC(C)C)C(=O)N[C@@H](Cc1c[nH]cn1)C(=O)N1CCC[C@H]1C(=O)N[C@@H](CO)C(=O)N[C@@H](CCCCN)C(=O)N[C@H](C(=O)N[C@@H](CC(=O)O)C(=O)N[C@@H](CC(C)C)C(=O)N1CCC[C@H]1C(=O)N[C@@H](CCCNC(=N)N)C(=O)O)C(C)C [SOR-C27] (H-EGKLSSNDTEGGLCKEFLHPSKVDLPR-OH)
Human TRPV6 channels; 65.2 nM, mean ± SEM
  reduction of maximum TRPV6 current amplitude: 17±4%
Human TRPV6 channels; 326 nM, mean ± SEM
  reduction of maximum TRPV6 current amplitude: 27±5%
Human TRPV6 channels; 652 nM, mean ± SEM
  reduction of maximum TRPV6 current amplitude: 31±5%
Human TRPV6 channels; 20 µM, mean ± SEM
  reduction of maximum TRPV6 current amplitude: 34±5%
Human TRPV6 channels
  Kd: 0.065 ± 0.001 µM
Human TRPV6 channels; whole-cell patch clamp, 50 ms voltage ramp -110 to +90 mV, dose-response curve, mean ± SEM, b62/b63, read-out: IC50 (Kd) for reduction of TRPV6 current amplitude
  IC50: 0.065 ± 0.001 µM
[3]
  solubility: completely soluble in all solutions and under all conditions

B1: TRPV6 (protein)
chain: MGPLQGDGGPALGGADVAPRLSPVRVWPRPQAPKEPALHPMGLSLPKEKGLILCLWSKFCRWFQRRESWAQSRDEQNLLQQKRIWESPLLLAAKDNDVQALNKLLKYEDCKVHQRGAMGETALHIAALYDNLEAAMVLMEAAPELVFEPMTSELYEGQTALHIAVVNQNMNLVRALLARRASVSARATGTAFRRSPCNLIYFGEHPLSFAACVNSEEIVRLLIEHGADIRAQDSLGNTVLHILILQPNKTFACQMYNLLLSYDRHGDHLQPLDLVPNHQGLTPFKLAGVEGNTVMFQHLMQKRKHTQWTYGPLTSTLYDLTEIDSSGDEQSLLELIITTKKREARQILDQTPVKELVSLKWKRYGRPYFCMLGAIYLLYIICFTMCCIYRPLKPRTNNRTSPRDNTLLQQKLLQEAYMTPKDDIRLVGELVTVIGAIIILLVEVPDIFRMGVTRFFGQTILGGPFHVLIITYAFMVLVTMVMRLISASGEVVPMSFALVLGWCNVMYFARGFQMLGPFTIMIQKMIFGDLMRFCWLMAVVILGFASAFYIIFQTEDPEELGHFYDYPMALFSTFELFLTIIDGPANYNVDLPFMYSITYAAFAIIATLLMLNLLIAMMGDTHWRVAHERDELWRAQIVATTVMLERKLPRCLWPRSGICGREYGLGDRWFLRVEDRQDLNRQRIQRYAQAFHTRGSEDLDKDSVEKLELGCPFSPHLSLPMPSVSRSTSRSSANWERLRQGTLRRDLRGIINRGLEDGESWEYQI
[4]
  Kd: 0.065 µM
[5]
  Kd: 0.014 µM
